Test results taken from paper PMC9090415, “Discovery of small molecule inhibitors of Plasmodium falciparum apicoplast DNA polymerase” (Journal of Enzyme Inhibition and Medicinal Chemistry, 2022).
pIC50: −log10 of the molar value.

Target: P. falciparum apicoplast DNA polymerase (Pf-apPOL) (Plasmodium falciparum, UniProt Q8ILY1)
Assay: Fluorescence-based high-throughput DNA polymerase assay (molecular beacon), primary screen and dose-response
Format: biochemical
Method in brief: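 Single-point screening used 10 µM compound with 20 nM polymerase, 20 nM hairpin substrate and 6 µM dNTPs for 90 min at 25 °C. Confirmatory titrations (2.5–80 µM) followed fluorescence at three times, and IC50 was derived from a fit including a cooperativity term n.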

[1] = supplemental file 2, sheet IC50 nontoxic compounds; Pf-apPOL

Chain of P. falciparum apicoplast DNA polymerase (Pf-apPOL) (Q8ILY1 entry or part of it): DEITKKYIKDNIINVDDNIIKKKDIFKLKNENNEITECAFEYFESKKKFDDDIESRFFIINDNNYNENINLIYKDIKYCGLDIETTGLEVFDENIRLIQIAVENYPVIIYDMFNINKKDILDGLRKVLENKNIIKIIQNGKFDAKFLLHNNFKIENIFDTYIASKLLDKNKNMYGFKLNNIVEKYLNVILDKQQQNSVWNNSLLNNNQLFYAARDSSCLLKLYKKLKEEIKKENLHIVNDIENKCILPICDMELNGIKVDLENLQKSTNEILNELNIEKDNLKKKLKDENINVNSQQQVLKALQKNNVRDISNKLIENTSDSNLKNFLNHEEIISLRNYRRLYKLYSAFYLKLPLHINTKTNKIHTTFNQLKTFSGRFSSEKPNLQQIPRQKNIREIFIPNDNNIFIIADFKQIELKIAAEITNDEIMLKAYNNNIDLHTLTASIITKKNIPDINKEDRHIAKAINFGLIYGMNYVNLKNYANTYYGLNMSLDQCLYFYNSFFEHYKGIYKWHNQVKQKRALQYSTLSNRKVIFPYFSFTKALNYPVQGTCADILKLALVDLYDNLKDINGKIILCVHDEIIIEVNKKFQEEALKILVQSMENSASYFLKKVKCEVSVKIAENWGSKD

SMILES: O=C(Nc1c2c(nn1-c1ccccc1)CSC2)c1ccco1 [KU0055213]
- % inhibition Apo pol 10' (DRC-1; concentration 2.5; 10'): 28.0848%
- % inhibition Apol 90' (DRC-1; concentration 2.5; 90'): 10.2281%
- % inhibition apPOL 180' (DRC-1; concentration 2.5; 180'): -1.233%
- % inhibition Apo pol 10' (DRC-1; concentration 5; 10'): 39.8975%
- % inhibition Apol 90' (DRC-1; concentration 5; 90'): 17.5159%
- % inhibition apPOL 180' (DRC-1; concentration 5; 180'): 1.991%
- % inhibition Apo pol 10' (DRC-1; concentration 10; 10'): 66.5971%
- % inhibition Apol 90' (DRC-1; concentration 10; 90'): 43.2893%
- % inhibition apPOL 180' (DRC-1; concentration 10; 180'): 23.4061%
- % inhibition Apo pol 10' (DRC-1; concentration 20; 10'): 82.6519%
- % inhibition Apol 90' (DRC-1; concentration 20; 90'): 64.6698%
- % inhibition apPOL 180' (DRC-1; concentration 20; 180'): 46.0885%
- % inhibition Apo pol 10' (DRC-1; concentration 40; 10'): 90.9141%
- % inhibition Apol 90' (DRC-1; concentration 40; 90'): 82.7699%
- % inhibition apPOL 180' (DRC-1; concentration 40; 180'): 72.6518%
- % inhibition Apo pol 10' (DRC-1; concentration 80 (unit not given); 10'): 92.3383%
- % inhibition Apol 90' (DRC-1; concentration 80; 90'): 91.2919%
- % inhibition apPOL 180' (DRC-1; concentration 80; 180'): 88.3514%
- % inhibition Apo pol 5' (DRC-2; 5'; concentration 2.5): 24%
- % inhibition Apo pol 5' (DRC-2; 5'; concentration 5): 37%
- % inhibition Apo pol 5' (DRC-2; 5'; concentration 40): 59%
- % inhibition Apo pol 5' (DRC-2; 5'; concentration 80): 59%
- % inhibition Apol 40' (DRC-2; 40'; concentration 20): 59%
- % inhibition Apol 40' (DRC-2; 40'; concentration 40): 70%
- % inhibition ApPOL 90' (DRC-2; 90'; concentration 10): 37%
- % inhibition ApPOL 90' (DRC-2; 90'; concentration 40): 70%
- % inhibition apPOL 180' (DRC-2; 180'; concentration 10): 24%
- % inhibition Apo pol 5' (DRC-2; concentration 2.5; 5'): 24%
- % inhibition Apol 40' (DRC-2; concentration 2.5; 40'): 21%
- % inhibition ApPOL 90' (DRC-2; concentration 2.5; 90'): 17%
- % inhibition apPOL 180' (DRC-2; concentration 2.5; 180'): 9%
- % inhibition Apo pol 5' (DRC-2; concentration 5; 5'): 37%
- % inhibition Apol 40' (DRC-2; concentration 5; 40'): 36%
- % inhibition ApPOL 90' (DRC-2; concentration 5; 90'): 32%
- % inhibition apPOL 180' (DRC-2; concentration 5; 180'): 20%
- % inhibition Apo pol 5' (DRC-2; concentration 10; 5'): 44%
- % inhibition Apol 40' (DRC-2; concentration 10; 40'): 42%
- % inhibition ApPOL 90' (DRC-2; concentration 10; 90'): 37%
- % inhibition apPOL 180' (DRC-2; concentration 10; 180'): 24%
- % inhibition Apo pol 5' (DRC-2; concentration 20; 5'): 52%
- % inhibition Apol 40' (DRC-2; concentration 20; 40'): 59%
- % inhibition ApPOL 90' (DRC-2; concentration 20; 90'): 57%
- % inhibition apPOL 180' (DRC-2; concentration 20; 180'): 49%
- % inhibition Apo pol 5' (DRC-2; concentration 40; 5'): 59%
- % inhibition Apol 40' (DRC-2; concentration 40; 40'): 70%
- % inhibition ApPOL 90' (DRC-2; concentration 40; 90'): 70%
- % inhibition apPOL 180' (DRC-2; concentration 40; 180'): 65%
- % inhibition Apo pol 5' (DRC-2; concentration 80; 5'): 59%
- % inhibition Apol 40' (DRC-2; concentration 80; 40'): 75%
- % inhibition ApPOL 90' (DRC-2; concentration 80; 90'): 77%
- % inhibition apPOL 180' (DRC-2; concentration 80; 180'): 78%
- DNA Pol (primary screen value of the 186 hits; unit not given; 90 min, 10 µM): 50
- DNA Pol (primary screen value; head prints only 'DNA Pol'; 90 min, 10 µM): 50

SMILES: Cc1cc(C)nc(Nc2nc(CC(=O)Nc3nc(-c4ccco4)cs3)cs2)n1 [Molecule 92]
- pIC50 [1]: 5.07

SMILES: CCSc1nnc(NC(=O)Cc2csc(NC(=O)c3cnccn3)n2)s1 [Molecule 79]
- pIC50 [1]: 4.33

SMILES: CC(C)(C)c1cc(C(=O)C(C#N)=NNc2cccc(Cl)c2)no1 [Molecule 98, N#CC(=NNc1cccc(c1)Cl)C(=O)c1noc(c1)C(C)(C)C]
- DNA Pol ('DNA Pol' of the 186 hits list (primary screen result); unit not given; 90 min, 10 µM): 96
- % inhibition Apo pol 10' (DRC-1; 10'; concentration 2.5): 10.7073%
- % inhibition Apo pol 10' (DRC-1; 10'; concentration 5): 31.7551%
- % inhibition Apo pol 10' (DRC-1; 10'; concentration 10): 51.803%
- % inhibition Apo pol 10' (DRC-1; 10'; concentration 20): 87.204%
- % inhibition Apo pol 10' (DRC-1; 10'; concentration 40): 82.704%
- % inhibition Apo pol 10' (DRC-1; 10'; concentration 80): 96.4114%
- % inhibition Apol 90' (DRC-1; 90'; concentration 2.5): 12.918%
- % inhibition Apol 90' (DRC-1; 90'; concentration 5): 31.5705%
- % inhibition Apol 90' (DRC-1; 90'; concentration 10): 54.1185%
- % inhibition Apol 90' (DRC-1; 90'; concentration 20): 87.0322%
- % inhibition Apol 90' (DRC-1; 90'; concentration 40): 80.829%
- % inhibition Apol 90' (DRC-1; 90'; concentration 80): 96.7924%
- % inhibition apPOL 180' (DRC-1; 180'; concentration 2.5): 9.726%
- % inhibition apPOL 180' (DRC-1; 180'; concentration 5): 23.8574%
- % inhibition apPOL 180' (DRC-1; 180'; concentration 10): 46.8466%
- % inhibition apPOL 180' (DRC-1; 180'; concentration 20): 85.1856%
- % inhibition apPOL 180' (DRC-1; 180'; concentration 40): 79.4059%
- % inhibition apPOL 180' (DRC-1; 180'; concentration 80): 96.5379%
- % inhibition ApPOL 90' (DRC-2, 90', concentration 20 (unit not given)): 61%
- % inhibition Apo pol 5' (DRC-2; 5'; concentration 2.5): 8%
- % inhibition Apo pol 5' (DRC-2; 5'; concentration 5): 18%
- % inhibition Apo pol 5' (DRC-2; 5'; concentration 10): 30%
- % inhibition Apo pol 5' (DRC-2; 5'; concentration 20): 47%
- % inhibition Apo pol 5' (DRC-2; 5'; concentration 40): 46%
- % inhibition Apo pol 5' (DRC-2; 5'; concentration 80): 61%
- % inhibition Apo pol 5' (DRC-2; 5'; concentration 80 (unit not given)): 61%
- % inhibition Apol 40' (DRC-2; 40'; concentration 2.5): 10%
- % inhibition Apol 40' (DRC-2; 40'; concentration 5): 24%
- % inhibition Apol 40' (DRC-2; 40'; concentration 10): 40%
- % inhibition Apol 40' (DRC-2; 40'; concentration 20): 60%
- % inhibition Apol 40' (DRC-2; 40'; concentration 40): 56%
- % inhibition Apol 40' (DRC-2; 40'; concentration 80): 76%
- % inhibition ApPOL 90' (DRC-2; 90'; concentration 2.5): 8.47%
- % inhibition ApPOL 90' (DRC-2; 90'; concentration 5): 21%
- % inhibition ApPOL 90' (DRC-2; 90'; concentration 10): 39%
- % inhibition ApPOL 90' (DRC-2; 90'; concentration 20): 61%
- % inhibition ApPOL 90' (DRC-2; 90'; concentration 40): 58%
- % inhibition ApPOL 90' (DRC-2; 90'; concentration 80): 79%
- % inhibition apPOL 180' (DRC-2; 180'; concentration 2.5): 2.49%
- % inhibition apPOL 180' (DRC-2; 180'; concentration 5): 14%
- % inhibition apPOL 180' (DRC-2; 180'; concentration 10): 31%
- % inhibition apPOL 180' (DRC-2; 180'; concentration 20): 57%
- % inhibition apPOL 180' (DRC-2; 180'; concentration 40): 55%
- % inhibition apPOL 180' (DRC-2; 180'; concentration 80): 81%
- DNA Pol (primary screen value of the library well; unit not given; 90 min, 10 µM): 96
